From patent US20140171358A1, “ANTIMICROBIAL COMPOSITIONS COMPRISING DGLA AND NEOMYCIN SULFATE AND METHODS OF USE THEREOF” (Dignity Sciences Limited, priority 2012, published 2014)
Read-outs that look alike come from different tables or passages of the source.

System: P. acnes
Test: agar dilution method: growth index and MIC on P. acnes (single compounds and combinations)
Type: cell-based
Conditions: for MIC: Cutibacterium acnes; for growth of P. Acnes with the combination compared with 15-HETrE used alone: in combination with 15-HETrE; for growth of P. Acnes with the combination compared with 15-OHEPA used alone: in combination with 15-OHEPA; for growth of P. Acnes with the combination compared with DGLA used alone: in combination with DGLA
Description: Several compounds including fatty acids such as DGLA, 15-OHEPA, and 15-HETrE were tested to determine their capacity to inhibit the growth of P. acnes. In an exemplary method, an agar dilution method was used to determine the minimum inhibitory concentration (MIC) of each tested compound. Briefly, the agar dilution method involved preparing a series of concentrations of each compound (e.g., nicotinamide, benzoyl peroxide, adapalene, metronidazole, DGLA, 15-OHEPA, and 15-HETrE) in a Reinforced Clostridial Agar (RCA) media that facilitates growth of P. acnes under anaerobic conditions. An inoculum of P. acnes was prepared by incubation of P. acnes for approximately seven days at 35-37° C. to achieve a ≧1.0 OD600 inoculum of P. acnes in RCM broth. A portion of this inoculum was then added to the surface of each plate as a 10 μL spot and incubated at 35-37° C. for 72 hours or more. Growth of P. acnes was then observed and compared to control plates in which no compound has been added, and positive inhibition plates prepared with erythromycin. […] The growth of P. acnes in the presence of nicotinamide, benzoyl peroxide, adapalene, metronidazole, DGLA, 15-OHEPA, and 15-HETrE was determined with varying concentrations of the compound (see, Table 2). Next, the MIC was determined as the concentration at which a marked reduction (+) occurs in the appearance of growth on the test plate (as per Clinical and Laboratory Standards Institute M11-A7). The compounds tested singly in Example 1 were tested in combination with one another to determine the capacity of the combination to inhibit the growth of P. acnes. In an exemplary method, the MIC was determined for each of the combination as described in Example 1. Briefly, test combinations included DGLA with nicotinamide, benzoyl peroxide, adapalene, or metronidazole; 15-HETrE with nicotinamide, benzoyl peroxide, adapalene, or metronidazole; and 15-OHEPA with nicotinamide, benzoyl peroxide, adapalene, or metronidazole. The tables below show the growth of P. acnes in the presence of 0.4 or 1.0 mg/mL DGLA with varying concentrations of nicotinamide, benzoyl peroxide, adapalene, or metronidazole (Table 3); the growth of P. acnes in the presence of 0.01 or 0.05 mg/mL 15-HETrE with varying concentrations of nicotinamide, benzoyl peroxide, adapalene, or metronidazole (Table 5); and the growth of P. acnes in the presence of 0.5 or 0.1 mg/mL 15-OHEPA with varying concentrations of nicotinamide, benzoyl peroxide, adapalene, or metronidazole (Table 7).

[1] = read-out: MIC (mg/mL) with 0.01 mg/mL 15-HETrE spike
[2] = read-out: MIC (mg/mL) with 0.05 mg/mL 15-OHEPA spike
[3] = with 0.05 mg/mL 15-HETrE (inhibitory concentration), read-out: MIC (mg/mL) with 0.05 mg/mL 15-HETrE spike
[4] = with 0.1 mg/mL 15-OHEPA (inhibitory concentration), read-out: MIC (mg/mL) with 0.1 mg/mL 15-OHEPA spike
[5] = with 0.4 mg/mL dGLA (Sigma), read-out: MIC (mg/mL) with 0.4 mg/mL dGLA spike
[6] = with 1.0 mg/mL dGLA (Cayman), read-out: MIC (mg/mL) with 1.0 mg/mL dGLA spike

| MIC (compound alone, read-out: MIC (mg/mL) as per P-11-0007 or P-11-0008 Addendum A) [mg/mL] | MIC [1] [mg/mL] | MIC [2] [mg/mL] | MIC [3] [mg/mL] | MIC [4] [mg/mL] | MIC [5] [mg/mL] | MIC [6] [mg/mL] | SMILES | growth of P. Acnes with the combination compared with 15-HETrE used alone | growth of P. Acnes with the combination compared with 15-OHEPA used alone | growth of P. Acnes with the combination compared with DGLA used alone |
| --- | --- | --- | --- | --- | --- | --- | --- | --- | --- | --- |
| 0.6 to 0.8 | 0.6 to 0.8 | 0.4 to 0.6 | < 0.2 | < 0.2 | 0.2 to 0.4 | 0.2 to 0.4 | O=C(OOC(=O)c1ccccc1)c1ccccc1 [Benzoyl Peroxide] | did not reduce the growth of P. Acnes below that of 15-HETrE used alone |  |  |
|  | > 1 | > 1 | < 0.2 | < 0.2 | > 1 | > 1 | Cc1ncc([N+](=O)[O-])n1CCO [Metronidazole] | did not reduce the growth of P. Acnes below that of 15-HETrE used alone | did not reduce the growth of P. Acnes below that of 15 OHEPA used alone | did not reduce the growth of P. Acnes below that of DGLA used alone |
|  | 10 to 15 | 10 to 15 | < 1 | < 1 | 10 to 15 | 10 to 15 | NC(=O)c1cccnc1 [Nicotinamide] | did not reduce the growth of P. Acnes below that of 15-HETrE used alone | did not reduce the growth of P. Acnes below that of 15 OHEPA used alone | did not reduce the growth of P. Acnes below that of DGLA used alone |
